The test system of test [1] is Scopolamine induced memory deficit. The test can be described thus: Novel object recognition (NOR) test, scopolamine induced memory deficit. In kind it is in vivo, mice. As to conditions: RG-02 10 mg/kg i.p. + scopolamine 0.5 mg/kg i.p., 7th day. From the text: (§1) All animal experiments and procedures were executed in accordance with the guidelines established in the guide for the care and use of laboratory animals and were approved by the institutional animal ethics committee (IAEC) of CSIR-Central Drug Research Institute, Lucknow, India. In this study, male C57BL/6J mice (6-8 weeks old) weighing 22-25 g were used. They were housed on a 12-h light/dark cycle (lights on at 8.00 am) and food and water were provided ad libitum. Animals were acclimatized to the experimental room 30 minutes prior to the beginning of behavioral procedures. For experimental purpose, animals were randomly divided into four groups: vehicle, RG-02, scopolamine and scopolamine along with RG-02. In scopolamine along with RG-02 group, RG-02 (10 mg/kg, i.p) was injected thirty minutes prior to the scopolamine (0.5 mg/kg, i.p.) injections.
The NOR test was performed according to the protocol introduced by Ennaceur and Delacour (Ennaceur & Delacour, 1988) with slight modification.
The NOR task procedure consisted of three sessions—[…], familiarization and test session. During habituation session, the mouse was placed in an open field (Square box of 40×40×40 cm), facing the wall of the arena, and allowed to explore the entire arena for 10 minutes. Following habituation period of 10 minutes, the mouse was returned to its home cage.
Between every […] session, the whole arena was cleaned with 10% ethanol to reduce olfactory cues. […] During this session, the test animal was placed in the arena and was allowed to explore the entire arena with familiar and novel object, and its activity was also video recorded. To determine the retention of object memory, the recorded videos of test session were analyzed by independent observer who was unknown to treatment of mice to calculate the time spent in exploring both objects. Data are presented as % time of exploration of familiar or novel object, and discrimination index was calculated as per following equation: (Tn−Tf)/Tt: Discrimination Index […]

The subject of a further test is C57BL/6 mice. The test can be described thus: Locomotor activity in open field arena. Format: in vivo. As to conditions: 10 mg/kg i.p., acute, 60 minutes following injection, vs vehicle, p<0.05.
Text: as §1
Locomotor activity was tested according to the previously published protocol (Kelly et al, 1998) with slight modifications. Briefly, mice were put in the centre of a clear Plexiglas (40×40×30 cm) open-field arena and were allowed to explore the entire arena for 30 minutes. After 30 minutes of exploration, animals were injected with either RG-02 (10 mg/kg; i.p.) or 0.9% normal saline and were allowed to explore the arena for further 60 minutes. […]

Test [2] deals with Scopolamine induced memory deficit. The test can be described thus: Morris water maze (MWM) test, scopolamine induced learning deficit. Format: in vivo, mice.
Text: as §1
The Morris water maze (MWM) test was performed according to Morris 1984, with slight modifications. Circular pool of dimensions-100 cm diameter and 45 cm depth, which was filled up to 25 cm from bottom with white colour water. Temperature of water was adjusted to 24-25° C. Pool was divided into four quadrants and a square platform of 10×10 cm in was placed into the tank at a fixed location in the centre of one of the four imaginary quadrants. Training sessions were conducted for 3 consecutive days and on 4th day a probe trial was performed. During training session, mouse was gently placed into the water facing the edge of the pool of one of the quadrant. If the mouse was able to find the platform before the 60 sec cut-off, it was allowed to stay over the platform for 5 more seconds followed by returning to its home cage. […] Total three trials/day were run for each mouse with minimum interval of 10-15 minutes between two trials, and latency to reach the platform was calculated. On the fourth day, for the probe trial, the platform was removed and the time spent in respective quadrant was calculated.

A further test deals with T1, human M2R (Homo sapiens, UniProt P08172).
T1 construct: expressed in transfected cells; host or cells: HEK-293T
T1 sequence (P08172 1-466): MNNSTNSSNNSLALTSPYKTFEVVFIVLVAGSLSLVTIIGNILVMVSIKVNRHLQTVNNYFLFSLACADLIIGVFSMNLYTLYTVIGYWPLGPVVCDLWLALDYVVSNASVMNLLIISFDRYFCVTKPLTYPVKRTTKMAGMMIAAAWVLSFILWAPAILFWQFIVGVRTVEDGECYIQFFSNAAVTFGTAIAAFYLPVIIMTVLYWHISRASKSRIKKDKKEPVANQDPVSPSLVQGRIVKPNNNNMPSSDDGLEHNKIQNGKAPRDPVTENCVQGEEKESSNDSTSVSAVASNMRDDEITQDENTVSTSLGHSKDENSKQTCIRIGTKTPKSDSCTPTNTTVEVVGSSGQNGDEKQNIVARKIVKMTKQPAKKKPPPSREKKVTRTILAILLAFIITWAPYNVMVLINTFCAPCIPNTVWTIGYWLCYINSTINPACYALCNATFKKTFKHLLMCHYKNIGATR
Description: GloSensor cAMP assay (Gi-mediated cAMP inhibition). In kind it is cell-based. As to conditions: for IC50: agonist. The protocol:
To measure M2 muscarinic receptor induced (Gi-mediated) cAMP inhibition, HEK-293T cells (procured from NCCS, Pune) were co-transfected with human M2R and luciferase based cAMP biosensor (pGloSensor™-22F plasmid; Promega) using PEImax method of transfection in the ratio of 1:1. The transfected cells were incubated at 37° C. in tissue culture incubator with 5% CO2 for 14-16 hours. For GloSensor cAMP assay, after overnight incubation, media from the plate was aspirated and 100 μl of sodium luciferin solution in drug buffer (1×HBSS (pH7.4) and 20 mM HEPES) was added to the cell plates. The plates were then incubated at 37° C. in tissue culture incubator with 5% CO2 for 90 minutes. After incubation, cells were treated with 20 μl of 6× diluted standard carbamoyl choline (10000 nM to 0.01 nM) along with test compounds (in triplicates) and were incubated in a humidified tissue culture incubator at 37° C. with 5% CO2 for 10-15 minutes to get a steady state condition. Ligand incubation was followed by addition of 20 μl of 7×(70 μM) forskoline (FSK) to the plate. FSK incubation was followed by incubation at 37° C. for 10-15 minutes and measurement of luminescence per well using luminescence plate reader (BMG Labtech). The results were plotted as inhibition of FSK stimulated cAMP response (relative luminescence units) using nonlinear regression analysis by Graph-Pad prism V.
(cAMP levels reflect the balance of adenylyl cyclase and phosphodiesterase activity.)

The next test addresses T2, human M5R (Homo sapiens, UniProt P08912).
T2 construct: expressed in transfected cells; host or cells: HEK-293T
T2 sequence (P08912 1-532): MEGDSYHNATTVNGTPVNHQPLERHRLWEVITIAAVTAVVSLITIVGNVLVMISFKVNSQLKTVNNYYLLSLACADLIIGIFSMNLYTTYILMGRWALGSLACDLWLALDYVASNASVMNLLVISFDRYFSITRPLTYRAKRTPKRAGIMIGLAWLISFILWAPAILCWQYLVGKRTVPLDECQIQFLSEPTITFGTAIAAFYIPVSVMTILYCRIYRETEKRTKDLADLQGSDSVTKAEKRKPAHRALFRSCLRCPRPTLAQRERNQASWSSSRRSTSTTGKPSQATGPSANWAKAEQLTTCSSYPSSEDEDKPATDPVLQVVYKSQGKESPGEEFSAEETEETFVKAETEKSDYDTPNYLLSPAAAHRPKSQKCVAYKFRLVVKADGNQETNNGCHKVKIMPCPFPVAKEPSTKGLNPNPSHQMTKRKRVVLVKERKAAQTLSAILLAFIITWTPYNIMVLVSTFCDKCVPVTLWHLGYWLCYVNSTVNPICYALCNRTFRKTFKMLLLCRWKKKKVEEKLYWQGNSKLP
Description: NFAT-luciferase assay, M5. Format: cell-based. On the procedure:
(§2) To measure the agonist or antagonist activity at M1, M3 and M5 muscarinic receptor, NFAT-luciferase activity was performed in HEK-293T cells (procured from NCCS, Pune) by co-transfecting with human M1R or M3R or M5R and pGL4.30 (luc2P/NFAT-RE/Hygro; Promega Corp,) in 96 well format. The transfected cells were incubated at 37° C. in tissue culture incubator with 5% CO2 for 14-16 hours. To determine the if the test compounds are agonist, the transfected cells were treated with either 20 μl/well of carbamoyl choline (as a positive control) at various concentrations (10000 nM to 0.01 nM) or with various concentrations of test compounds (in triplicates) and were further incubated for 12 hrs in a humidified tissue culture incubator at 37° C. with 5% CO2. For antagonist mode assay, test compound incubation was followed by addition of 20 μl of 7 μM carbamoylcholine (agonist) to the plate. Following 12-14 hrs of drug treatment, media from the plate was aspirated and 100 μl of sodium luciferin solution (10 mg/ml) was added and luminescence per well was recorded using luminescence plate reader (BMG Labtech).

In another test the target is T3, human M1R (Homo sapiens, UniProt P11229).
T3 construct: expressed in transfected cells; host or cells: HEK-293T
T3 sequence (P11229 1-460): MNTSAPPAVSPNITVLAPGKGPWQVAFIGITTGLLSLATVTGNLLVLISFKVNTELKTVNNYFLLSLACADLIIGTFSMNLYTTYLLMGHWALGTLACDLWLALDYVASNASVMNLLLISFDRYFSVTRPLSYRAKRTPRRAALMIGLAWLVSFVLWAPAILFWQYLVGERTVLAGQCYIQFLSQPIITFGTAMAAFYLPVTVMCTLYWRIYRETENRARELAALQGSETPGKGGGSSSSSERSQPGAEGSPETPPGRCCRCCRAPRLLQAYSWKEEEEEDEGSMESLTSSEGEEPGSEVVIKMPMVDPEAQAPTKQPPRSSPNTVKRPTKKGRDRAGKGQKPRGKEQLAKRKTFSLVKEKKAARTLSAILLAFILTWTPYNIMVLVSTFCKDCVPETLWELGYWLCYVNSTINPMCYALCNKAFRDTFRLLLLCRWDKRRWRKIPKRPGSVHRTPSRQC
Description: NFAT-luciferase assay, M1. In kind it is cell-based. The protocol:
as §2

The target of the next test is T4, human M3R (Homo sapiens, UniProt P20309).
T4 construct: expressed in transfected cells; host or cells: HEK-293T
The test can be described thus: NFAT-luciferase assay, M3. In kind it is cell-based. On the procedure: as §2

Entries after “also recorded” stand apart in the source; their conditions may differ. Where two headings read alike, the source gives them in different places.

T4 sequence (P20309 whole entry): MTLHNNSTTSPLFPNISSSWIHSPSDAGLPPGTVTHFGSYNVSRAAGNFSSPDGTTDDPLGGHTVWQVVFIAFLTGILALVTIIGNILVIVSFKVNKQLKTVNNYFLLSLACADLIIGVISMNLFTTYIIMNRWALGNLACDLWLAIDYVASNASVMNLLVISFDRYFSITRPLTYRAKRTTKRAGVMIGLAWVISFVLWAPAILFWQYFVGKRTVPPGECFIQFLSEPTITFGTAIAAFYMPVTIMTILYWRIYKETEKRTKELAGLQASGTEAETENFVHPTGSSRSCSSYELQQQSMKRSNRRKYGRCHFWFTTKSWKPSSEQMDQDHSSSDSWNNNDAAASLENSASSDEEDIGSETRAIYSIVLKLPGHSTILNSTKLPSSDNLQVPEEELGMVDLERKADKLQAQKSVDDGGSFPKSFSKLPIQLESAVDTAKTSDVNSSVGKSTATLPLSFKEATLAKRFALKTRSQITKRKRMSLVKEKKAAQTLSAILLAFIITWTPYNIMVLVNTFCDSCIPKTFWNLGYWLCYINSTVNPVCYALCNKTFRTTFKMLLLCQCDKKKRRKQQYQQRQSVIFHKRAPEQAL

For the compound `O=C1CCC[C@@H]2[C@@H]1C[C@@]1(S(=O)(=O)c3ccccc3)C(=O)[C@@H]3c4ccccc4[C@H]1N32` [RG-02, (4aS,6S,6aR,11S,12aR)-6-(phenylsulfonyl)-1,2,3,4a,5,6,6a,12a-octahydro-6,11-methanoisoindolo[2,1-a]quinoline-4,13(11H)-dione], in test [1] (vs scopolamine alone / vehicle), the “percent time exploration for novel object” value is recorded as “significantly increased”. Moreover, in test [1] (vs scopolamine alone, p<0.05), the “novel object discrimination index” value is recorded as “significantly blocked the negative effect of scopolamine on novel object discrimination; also recorded: significantly increased”. Further, in the test with C57BL/6 mice, the “locomotor activity (total horizontal distance travelled)” value is recorded as “significantly increased locomotor activity; also recorded: neurostimulatory effect; also recorded: significant increase in locomotor activity”. Moreover, the “time spent in platform quadrant (probe trial)” value in test [2] (RG-02 10 mg/kg i.p. + scopolamine 0.5 mg/kg i.p., day 4, vs scopolamine alone) was “increased the time spent in the quadrant with platform; also recorded: significantly increased”. Besides, the “learning the location of hidden platform” value in test [2] (RG-02 alone 10 mg/kg i.p., vs vehicle) was “no per se effect”. Also, the “agonist activity at M2 receptor (in words)” value at human M2R is given as “most potent agonist at M2 receptor; also recorded: selective M2 muscarinic receptor agonist with high activity”. The IC50 is 4.17 nM at human M2R (M2, N.A. = not active, read-out: pIC50/pEC50 (Mean ± SEM) M2 (converted)) and 4 nM on human M2R (read-out: IC50 at M2 receptor).
In the case of `O=C1[C@@H]2c3ccccc3[C@H]3N2[C@@H]2CCCC(OS(=O)(=O)C(F)(F)F)=C2C[C@@]13S(=O)(=O)c1ccccc1` [RG-12, (6S,6aR,11S,12aR)-13-oxo-6-(phenylsulfonyl)-1,2,3,5,6,6a,11,12a-octahydro-6,11-methanoisoindolo[2,1-a]quinolin-4-yl trifluoromethanesulfonate], the “antagonist activity at M5 receptor (in words)” value at human M5R is listed as “very modest activity”. The IC50 at human M5R (M5, antagonist, N.A. = not active, read-out: pIC50/pEC50 (Mean ± SEM) M5 (converted)) is 269 nM; on human M1R (M1, antagonist, N.A. = not active, read-out: pIC50/pEC50 (Mean ± SEM) M1 (converted)), 129 nM. Besides, the “antagonist activity at M1 receptor (in words)” value at human M1R is reported as “very modest activity”. For the same compound, at human M3R, the “antagonist activity at M3 receptor (in words)” value is reported as “very modest activity”. Also, the “selectivity among muscarinic receptors (in words)” value at human M3R (M1, M3 and M5 antagonist profiling) is recorded as “nonselective muscarinic receptor antagonist”.
